Laboratory results: US12662451B2, “Chemical compounds and uses thereof” (GLAXOSMITHKLINE INTELLECTUAL PROPERTY (NO.4) LIMITED, priority 2023, dated 2026)
Read-outs that look alike come from different tables or passages of the source.

Tests used:
[1] = Cell culture media unbound percentage and stability by rapid equilibrium dialysis (Example C); format: in vitro ADME; details: bovine, cell assay medium (RPMI-1640 with 10% fetal bovine serum), pH 7.4, rapid equilibrium dialysis, 4 hours at 37° C., read-out: Cell Culture Media Binding (% unbound)
Summary of the method: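 Compound spiked into cell culture medium at nominal 1 μM and dialysed against PBS (100 mM sodium phosphate + 150 mM NaCl, pH 7.4) by rapid equilibrium dialysis, triplicate, 4 h at 37° C with shaking. LC-MS/MS peak area ratios gave percent unbound (receiver/donor) and percent stability (240 min vs 0 min).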

[2] = system: SW48 human colorectal cancer cells; test: Calculated free drug potency in SW48 cell assay, corrected with media free fraction (Example C); format: cell-based; details: Homo sapiens, SW48, SW48 pCC50 corrected with measured free fraction in cell assay media
Summary of the method: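 Compound spiked at nominal 1 μM into cell assay medium and dialysed against PBS (100 mM sodium phosphate, 150 mM NaCl, pH 7.4) by rapid equilibrium dialysis, 4 h, 37 °C, shaking. Percent unbound from LC-MS/MS peak area ratios (240 min vs 0 min); cell assay concentrations corrected by this free fraction.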

[3] = biological target: T1, recombinant full-length WRN protein (1-1432) (Homo sapiens, UniProt Q14191); test: WRN unwinding activity, fluorogenic 384-well assay (Example A); format: biochemical; details: WRN unwinding activity, 4 hr; Table 2; read-out: 4 hr UNW pIC50 (converted)
T1 construct: recombinant full-length WRN protein (1-1432)
Summary of the method: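 200 pM enzyme (2× stock) preincubated with compound 4 h at ambient temperature, then 200 μM ATP and 12 nM quenched TAMRA-labelled dsDNA (2× stocks) added for 60 min; EDTA-quenched. Buffer 25 mM Tris pH 8.0, 5 mM NaCl, 2 mM MgCl2. Fluorescence at 525/598 nm; pIC50 from four-parameter fit.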

[4] = system: SW48 human colorectal cancer cells (MSI-H cancer cells); test: SW48 cell viability, CellTiter-Glo, 120 hours (Example B); details: Homo sapiens
Method: SW48 human colorectal cancer cells (MSI-H cancer cells) were obtained from the American Type Culture Collection and maintained in growth medium composed of RPMI-1640 supplemented with 10% fetal bovine serum. Cells were maintained in a humidified 5% CO2 incubator at 37° C. Cell dissociation was conducted using TrypLE Select to detach cells from culture flasks. Following dissociation, cells were centrifuged briefly and resuspended in assay medium RPMI-1640+10% fetal bovine serum. Black 384-well assay plates were prepared from source plates of DMSO and compounds dissolved in DMSO prior to cell dispensation. These source plates were prepared in eleven point, 3-fold serial dilutions from 10 mM stocks stored at 4° C. Compounds and DMSO controls were dispensed into assay plates at 150 nanoliters per well from source plates using Labcyte Echo 555 or Echo 655T dispensers with Column 6 and Column 18 containing DMSO only. Cells were then seeded into prepared assay plates in 50 microliters assay medium at 250 cells per well into Columns 1 thru 17 and Columns 19-24. Assay medium without cells was added to column 18 to serve as a surrogate for 100% cell cytotoxicity. Following incubation for 120 hours in a humidified 5% CO2 incubator at 37° C., cellular ATP concentration of each well was measured and used as a surrogate of cell viability. This was performed by adding 50 microliters of CellTiter-Glo reagent to each well followed by a 10-minute incubation at room temperature. Luminescence was measured on a Synergy Neo or Synergy Neo2 multimode plate reader. Compound cytotoxic response (% C) was normalized to the robust means of column 6 (Control 1, 0% Cytotoxicity) and column 18 (Control 2, 100% Cytotoxicity) and normalized % cytotoxicity (% C) calculated. % C=100−100*((Compound−Control 2)/(Control1−Control2)). These normalized data were then used to determine a 50% cytotoxic response (CC50) using 4-parameter logistic curve model 201 in Activity Base XE:
[formula] • where A=minimum asymptote (% cytotoxicity), B=maximum asymptote (% cytotoxicity), C=Log CC50 (pCC50), D=Hill slope, and x=[inhibitor], (M).

[5] = SW48, 120 h, read-out: SW48 pCC50, SW48 cell viability, 120 hours incubation (converted), Table 2
[6] = SW48, read-out: SW48 pCC50, measured potency from Example B, as repeated in Table 3 (converted)

T1 sequence (Q14191 whole entry): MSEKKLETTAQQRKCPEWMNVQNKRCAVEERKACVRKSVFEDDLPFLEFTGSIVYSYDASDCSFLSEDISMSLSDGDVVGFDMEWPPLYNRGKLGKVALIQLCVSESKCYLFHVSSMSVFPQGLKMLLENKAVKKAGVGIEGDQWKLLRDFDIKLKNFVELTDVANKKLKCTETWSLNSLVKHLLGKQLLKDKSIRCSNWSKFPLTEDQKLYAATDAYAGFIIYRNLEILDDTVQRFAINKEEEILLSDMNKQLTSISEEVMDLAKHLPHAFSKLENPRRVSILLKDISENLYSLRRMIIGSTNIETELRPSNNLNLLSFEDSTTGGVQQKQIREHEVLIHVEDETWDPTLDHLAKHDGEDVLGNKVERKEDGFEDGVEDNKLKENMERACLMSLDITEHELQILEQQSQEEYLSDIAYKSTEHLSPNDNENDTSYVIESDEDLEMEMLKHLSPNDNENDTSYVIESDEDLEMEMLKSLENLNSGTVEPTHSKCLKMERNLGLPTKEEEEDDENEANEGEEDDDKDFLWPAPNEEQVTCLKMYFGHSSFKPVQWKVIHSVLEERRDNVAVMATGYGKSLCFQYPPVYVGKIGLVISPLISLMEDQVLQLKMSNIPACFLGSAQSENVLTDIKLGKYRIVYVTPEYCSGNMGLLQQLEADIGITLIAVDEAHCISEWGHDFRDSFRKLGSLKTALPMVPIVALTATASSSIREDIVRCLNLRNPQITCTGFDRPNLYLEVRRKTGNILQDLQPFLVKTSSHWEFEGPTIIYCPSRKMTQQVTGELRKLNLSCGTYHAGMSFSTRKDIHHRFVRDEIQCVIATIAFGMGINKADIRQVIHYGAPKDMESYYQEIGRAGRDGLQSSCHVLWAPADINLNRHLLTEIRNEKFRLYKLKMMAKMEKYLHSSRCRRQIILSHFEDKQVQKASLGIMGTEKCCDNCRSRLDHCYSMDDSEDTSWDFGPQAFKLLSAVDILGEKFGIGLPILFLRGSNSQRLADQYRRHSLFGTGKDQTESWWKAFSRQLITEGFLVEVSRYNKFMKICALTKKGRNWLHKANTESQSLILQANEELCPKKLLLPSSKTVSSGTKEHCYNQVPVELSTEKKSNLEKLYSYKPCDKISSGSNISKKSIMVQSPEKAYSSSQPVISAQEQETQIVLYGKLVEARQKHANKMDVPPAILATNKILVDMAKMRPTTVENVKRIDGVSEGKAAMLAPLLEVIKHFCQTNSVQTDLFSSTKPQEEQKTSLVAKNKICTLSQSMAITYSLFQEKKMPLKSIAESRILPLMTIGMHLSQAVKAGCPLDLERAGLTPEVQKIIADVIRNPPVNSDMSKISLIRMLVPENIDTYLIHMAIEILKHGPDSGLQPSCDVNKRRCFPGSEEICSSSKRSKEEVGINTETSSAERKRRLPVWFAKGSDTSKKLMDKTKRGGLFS

| Compound | fraction unbound at 4 h, 1 µM [1] | CC50 [2] | IC50 [3] | CC50 [4, 5] | CC50 [4, 6] |
| --- | --- | --- | --- | --- | --- |
| Cc1nc2cc(S(=O)(=O)N(C)c3ccc([C@H]4C[C@@H](OC[C@@H]5CCOC5)C[C@@H](C(=O)Nc5ccc(C(F)(F)F)cc5F)[C@@H]4C(=O)O)cc3)ccc2n1C (stereo in doubt) [Example 320, (1R*,2R*,4R*,6S*)-2-((2-fluoro-4-(trifluoromethyl)phenyl)carbamoyl)-4-(((R)-tetrahydrofuran-3-yl)methoxy)-6-(4-((N,1,2-trimethyl-1H-benzo[d]imidazole)-5-sulfonamido)phenyl)cyclohexane-1-carboxylic acid] | 0.112 | 8.91 nM | 3.98 nM | 79.4 nM | 79.4 nM |
| Cc1nc2cc(S(=O)(=O)N(C)c3ccc([C@@H]4C[C@H](O[C@@H]5CCOC5)C[C@H](C(=O)Nc5ccc(C(F)(F)F)cc5F)[C@H]4C(=O)O)cc3)ccc2n1C (stereo in doubt) [Example 322, (1R*,2R*,4R*,6S*)-2-((2-fluoro-4-(trifluoromethyl)phenyl)carbamoyl)-4-(((R)-tetrahydrofuran-3-yl)oxy)-6-(4-((N,1,2-trimethyl-1H-benzo[d]imidazole)-5-sulfonamido)phenyl)cyclohexane-1-carboxylic acid] | 0.362 | 3630 nM | 20 nM | 10000 nM | – |
| Cc1nc2cc(S(=O)(=O)N(C)c3ccc([C@H]4C[C@@H](O[C@H]5CCOC5)C[C@@H](C(=O)Nc5ccc(C(F)(F)F)cc5F)[C@@H]4C(=O)O)cc3)ccc2n1C (stereo in doubt) [Example 323, (1R*,2R*,4R*,6S*)-2-((2-fluoro-4-(trifluoromethyl)phenyl)carbamoyl)-4-(((S)-tetrahydrofuran-3-yl)oxy)-6-(4-((N,1,2-trimethyl-1H-benzo[d]imidazole)-5-sulfonamido)phenyl)cyclohexane-1-carboxylic acid] | 0.144 | 14.5 nM | 1.58 nM | 100 nM | 100 nM |
| Cc1nc2cc(S(=O)(=O)N(C)c3ccc([C@H]4C[C@@H](OC5CCC5)C[C@@H](C(=O)Nc5ccc(C(F)(F)F)cc5F)[C@@H]4C(=O)O)cc3)ccc2n1C (stereo in doubt) [Example 325, rel-(1R,2R,4R,6S)-4-cyclobutoxy-2-((2-fluoro-4-(trifluoromethyl)phenyl)carbamoyl)-6-(4-((N,1,2-trimethyl-1H-benzo[d]imidazole)-5-sulfonamido)phenyl)cyclohexane-1-carboxylic acid] | 0.0862 | 17.4 nM | 2 nM | 200 nM | 200 nM |
| Cc1nc2cc(S(=O)(=O)N(C)c3ccc([C@H]4C[C@@H](OC[C@@H]5COCCO5)C[C@@H](C(=O)Nc5ccc(C(F)(F)F)cc5F)[C@@H]4C(=O)O)cc3)ccc2n1C (stereo in doubt) [Example 329, (1R*,2R*,4R*,6S*)-4-(((S)-1,4-dioxan-2-yl)methoxy)-2-((2-fluoro-4-(trifluoromethyl)phenyl)carbamoyl)-6-(4-((N,1,2-trimethyl-1H-benzo[d]imidazole)-5-sulfonamido)phenyl)cyclohexane-1-carboxylic acid] | 0.205 | 12.9 nM | 1.58 nM | 63.1 nM | 63.1 nM |
| Cc1nc2cc(S(=O)(=O)N(C)c3ccc([C@@H]4C[C@H](NCC(F)(F)F)C[C@H](C(=O)Nc5ccc(C(F)(F)F)cc5F)[C@H]4C(=O)O)cc3)ccc2n1C (stereo in doubt) [Example 333, rel-(1R,2R,4R,6S)-2-((2-fluoro-4-(trifluoromethyl)phenyl)carbamoyl)-4-((2,2,2-trifluoroethyl)amino)-6-(4-((N,1,2-trimethyl-1H-benzo[d]imidazole)-5-sulfonamido)phenyl)cyclohexane-1-carboxylic acid] | 0.326 | 3240 nM | 126 nM | 10000 nM | – |
| Cc1nc2cc(S(=O)(=O)N(C)c3ccc([C@H]4C[C@@H](NCC(F)(F)F)C[C@@H](C(=O)Nc5ccc(C(F)(F)F)cc5F)[C@@H]4C(=O)O)cc3)ccc2n1C (stereo in doubt) [Example 334, rel-(1R,2R,4R,6S)-2-((2-fluoro-4-(trifluoromethyl)phenyl)carbamoyl)-4-((2,2,2-trifluoroethyl)amino)-6-(4-((N,1,2-trimethyl-1H-benzo[d]imidazole)-5-sulfonamido)phenyl)cyclohexane-1-carboxylic acid] | 0.183 | 45.7 nM | 1.58 nM | 251 nM | 251 nM |
| Cc1nc2cc(S(=O)(=O)N(C)c3ccc([C@H]4C[C@H](NCC(F)(F)F)C[C@@H](C(=O)Nc5ccc(C(F)(F)F)cc5F)[C@@H]4C(=O)O)cc3)ccc2n1C (stereo in doubt) [Example 336, rel-(1R,2R,4S,6S)-2-((2-fluoro-4-(trifluoromethyl)phenyl)carbamoyl)-4-((2,2,2-trifluoroethyl)amino)-6-(4-((N,1,2-trimethyl-1H-benzo[d]imidazole)-5-sulfonamido)phenyl)cyclohexane-1-carboxylic acid] | 0.0491 | 155 nM | 1.58 nM | 3160 nM | 3160 nM |
| Cc1nc2cc(S(=O)(=O)N(C)c3ccc([C@@H]4C[C@H](N5CCC(F)(F)CC5)C[C@H](C(=O)Nc5ccc(C(F)(F)F)cc5F)[C@H]4C(=O)O)cc3)ccc2n1C (stereo in doubt) [Example 343] | 0.237 | 1170 nM | 100 nM | 5010 nM | 5010 nM |
| Cc1nc2cc(S(=O)(=O)N(C)c3ccc([C@H]4C[C@@H](N5CCC(F)(F)CC5)C[C@@H](C(=O)Nc5ccc(C(F)(F)F)cc5F)[C@@H]4C(=O)O)cc3)ccc2n1C (stereo in doubt) [Example 344] | 0.118 | 14.8 nM | 5.01 nM | 126 nM | 126 nM |
| Cc1nc2cc(S(=O)(=O)N(C)c3ccc([C@@H]4C[C@@H](N5CCC[C@@H](F)C5)C[C@H](C(=O)Nc5ccc(C(F)(F)F)cc5F)[C@H]4C(=O)O)cc3)ccc2n1C (stereo in doubt) [Example 346, rel-(1R*,2R*,4S*,6S*)-2-((2-fluoro-4-(trifluoromethyl)phenyl)carbamoyl)-4-((R)-3-fluoropiperidin-1-yl)-6-(4-((N,1,2-trimethyl-1H-benzo[d]imidazole)-5-sulfonamido)phenyl)cyclohexane-1-carboxylic acid] | 0.419 | 4170 nM | 3980 nM | 10000 nM | – |
| Cc1nc2cc(S(=O)(=O)N(C)c3ccc([C@H]4C[C@@H](N5CCC[C@H](F)C5)C[C@@H](C(=O)Nc5ccc(C(F)(F)F)cc5F)[C@@H]4C(=O)O)cc3)ccc2n1C (stereo in doubt) [Example 350, rel-(1R*,2R*,4R*,6S*)-2-((2-fluoro-4-(trifluoromethyl)phenyl)carbamoyl)-4-((S)-3-fluoropiperidin-1-yl)-6-(4-((, 1,2-trimethyl-1H-benzo[d]imidazole)-5-sulfonamido)phenyl)cyclohexane-1-carboxylic acid] | 0.218 | 13.8 nM | 1.58 nM | 63.1 nM | 63.1 nM |
| Cc1nc2cc(S(=O)(=O)N(C)c3ccc([C@H]4C[C@H](N5CCCC(F)(F)C5)C[C@@H](C(=O)Nc5ccc(C(F)(F)F)cc5F)[C@@H]4C(=O)O)cc3)ccc2n1C (stereo in doubt) [Example 352, rel-(1R,2R,4S,6S)-4-(3,3-difluoropiperidin-1-yl)-2-((2-fluoro-4-(trifluoromethyl)phenyl)carbamoyl)-6-(4-((N,1,2-trimethyl-1H-benzo[d]imidazole)-5-sulfonamido)phenyl)cyclohexane-1-carboxylic acid] | 0.028 | 112 nM | 3.98 nM | 3980 nM | 3980 nM |
| Cc1nc2cc(S(=O)(=O)N(C)c3ccc([C@H]4C[C@@H](OCC5CCOCC5)C[C@@H](C(=O)Nc5ccc(C(F)(F)F)cc5F)[C@@H]4C(=O)O)cc3)ccc2n1C (stereo in doubt) [Example 355, rel-(1R,2R,4R,6S)-2-((2-fluoro-4-(trifluoromethyl)phenyl)carbamoyl)-4-((tetrahydro-2H-pyran-4-yl)methoxy)-6-(4-((N,1,2-trimethyl-1H-benzo[d]imidazole)-5-sulfonamido)phenyl)cyclohexane-1-carboxylic acid] | 0.128 | 12.9 nM | 3.98 nM | 100 nM | 100 nM |
